Values of other authors, collected in US10966913B2, “Cosmetic use of spiculisporic acid as a deodorant active agent” (L'OREAL, priority 2014, dated 2021).

Conditions: room temperature

Q: Which results are given for `CCCCCCCCCCC(C(=O)O)C1(C(=O)O)CCC(=O)O1` (stereo not drawn) [spiculisporic acid, 4,5-dicarboxy-4-pentadecanolide]?
A: solubility in ethanol: soluble; solubility in fatty substances: insoluble; solubility in water: insoluble
